From ChEMBL document CHEMBL1132426, “Inhibitors of the C(2)-symmetric HIV-1 protease: nonsymmetric binding of a symmetric cyclic sulfamide with ketoxime groups in the P2/P2' side chains” (J Med Chem, 1999)

The compounds below were run against Human immunodeficiency virus type 1 protease (Human immunodeficiency virus 1, UniProt Q72874) (assay: Inhibitory activity against HIV-1 Protease expressed in Escherichia coli).

Row | SMILES | Ki [nM]
1 | COC(Cc1cccc(CN2[C@H](COc3ccccc3)[C@H](O)[C@@H](O)[C@@H](COc3ccccc3)N(Cc3cccc(CC(OC)OC)c3)S2(=O)=O)c1)OC | 540
2 | C/C(=N/O)c1cccc(CN2[C@H](COc3ccccc3)[C@H](O)[C@@H](O)[C@@H](COc3ccccc3)N(Cc3cccc(/C(C)=N\O)c3)S2(=O)=O)c1 | 3.4
3 | COC(=O)c1ccc(CN2[C@H](COc3ccccc3)[C@H](O)[C@@H](O)[C@@H](COc3ccccc3)N(Cc3ccc(C(=O)OC)cc3)S2(=O)=O)cc1 | 84
4 | O=S1(=O)N(Cc2cccc(CCO)c2)[C@H](COc2ccccc2)[C@H](O)[C@@H](O)[C@@H](COc2ccccc2)N1Cc1cccc(CCO)c1 | 43
5 | O=S1(=O)N(Cc2ccc(CO)cc2)[C@H](COc2ccccc2)[C@H](O)[C@@H](O)[C@@H](COc2ccccc2)N1Cc1ccc(CO)cc1 | 3.1
6 | CC(=O)c1cccc(CN2[C@H](COc3ccccc3)[C@H](O)[C@@H](O)[C@@H](COc3ccccc3)N(Cc3cccc(C(C)=O)c3)S2(=O)=O)c1 | 59
